The subject of assay [1] is ACAT. In words: Assay of ACAT inhibitory activity using Caco-2 cells. It is filed as cell-based, human. The note with it: concentration of compound: 500 nM. How it is done:
1. Assay of ACAT Inhibitory Activity Using Caco-2 Cells Derived from Human Colon Adenocarcinoma:
The measurement of ACAT inhibitory activity using Caco-2 cells was carried out by a modified method of that disclosed in the literature (J. Lipid. Research, 28, 1057-1066, 1987, Jpn. J. Pharmacol., 68, 191-199, 1995), using radioactive [1-^3H]oleic acid as a substrate, and the enzymatic activity was calculated from the radioactivity of the resultant labeled cholesterolyl oleate.

The target in assay [2] is T1, ACAT (Rattus norvegicus, UniProt O70536).
T1 construct: The rat peritoneal-derived macrophage was prepared according to the method disclosed in the literature; endogenous in cells; host or cells: rat peritoneal macrophages (primary cells)
T1 sequence (O70536 1-545): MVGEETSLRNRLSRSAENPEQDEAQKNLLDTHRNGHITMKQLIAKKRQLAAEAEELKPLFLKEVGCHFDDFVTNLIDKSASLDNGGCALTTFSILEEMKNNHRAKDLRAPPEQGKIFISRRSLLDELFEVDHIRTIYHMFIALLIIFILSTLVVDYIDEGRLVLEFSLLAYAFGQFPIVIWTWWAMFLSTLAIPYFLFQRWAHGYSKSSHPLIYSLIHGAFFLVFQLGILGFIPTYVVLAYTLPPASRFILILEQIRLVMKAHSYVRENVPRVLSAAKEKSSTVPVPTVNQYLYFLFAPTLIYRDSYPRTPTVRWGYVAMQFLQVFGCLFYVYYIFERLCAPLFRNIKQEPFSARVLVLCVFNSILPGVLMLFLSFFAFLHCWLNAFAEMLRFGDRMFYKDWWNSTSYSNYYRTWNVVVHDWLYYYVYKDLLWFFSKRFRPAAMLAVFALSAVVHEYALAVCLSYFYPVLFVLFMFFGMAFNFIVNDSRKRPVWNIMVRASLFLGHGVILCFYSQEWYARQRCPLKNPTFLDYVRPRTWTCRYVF
In words: Assay of ACAT inhibitory activity in a macrophage derived from rat peritoneal cavity. It is filed as cell-based. The note with it: concentration of compound: 500 nM. The method, then: 2. Assay of ACAT Inhibitory Activity in a Macrophage Derived from Rat Peritoneal Cavity:
The rat peritoneal-derived macrophage was prepared according to the method disclosed in the literature: Biochimica et Biophysica Acta, 1126, 73-80, 1992. The ACAT activity was determined by a modified method of the method disclosed in the above literature: Biochimica et Biophysica Acta, 1126, 73-80, 1992, using radioactive [9, 10-^3H]oleic acid and exogenous cholesterol contained in the liposome which was re-constituted according to the method disclosed in the literature: Biochimica et Biophysica Acta, 1213, 127-134, 1994, and calculated from the radioactivity of the labeled cholesterolyl oleate.

The results in this text go back to patent US20050165057A1, “Novel piperidine derivative” (priority 2002, published 2005).

In the case of `CC(C)c1cc(N)cc(C(C)C)c1NC(=O)NCC1(c2cccc(OCCCNC(=O)CC(F)(F)F)c2)CCN(c2ccccc2)CC1` [Example 11-1, N-{(1-phenyl-4-{3-[3-(2,2,2-trifluoroethyl)carbonylaminopropoxy]phenyl}piperidin-4-yl)methyl}-N′-(4-amino-2,6-diisopropylphenyl)urea], the “ACAT inhibitory rate (%)” value in assay [1] was found to be 57%; in assay [2] it was 99%.
In the same order, the values of `COc1cccc(C2(CNC(=O)Nc3c(C(C)C)cc(N)cc3C(C)C)CCN(c3cccc(C)c3)CC2)c1` [Example 12-2, N-{[1-(3-methylphenyl)-4-(3-methoxyphenyl)piperidin-4-yl]methyl}-N′-(4-amino-2,6-diisopropylphenyl)urea] are 59% and 99%.
Consider `COc1cccc(C2(CNC(=O)Nc3c(C(C)C)cc(N)cc3C(C)C)CCN(c3cccc(F)c3)CC2)c1` [Example 12-3, N-{[1-(3-fluorophenyl)-4-(3-methoxyphenyl)piperidin-4-yl]methyl}-N′-(4-amino-2,6-diisopropylphenyl)urea], for which the “ACAT inhibitory rate (%)” value is 63% in assay [1] and 99% in assay [2].
